Entries after “also recorded” stand apart in the source; their conditions may differ.
Key:
C286.8A = experiment: Competitive EIA, peptide epitope mapping of monoclonal antibody C286.8A; format: binding, Murine; conditions: Figure 4; plates coated with 50 ng of synthetic APP 695 (597-638); C286.8A (80 ng of IgG) preincubated 60 min at room temperature with competitor peptide
Procedure: Following incubation for 60 min at room temperature, plates were washed, and the amount of bound antibody determined by development with horseradish peroxidase-coupled goat-anti mouse polyclonal antibody according to standard procedures (Wunderlich et al., 1992, J. of Immunol. Methods 147:1). Percent competition (% C) of antibody binding to the plate was calculated from the absorbance at 450 nm data using the following equation: % C = 1.0 -(O.D. (+ competitor) - O.D. blank)/(O.D. (- competitor) - O.D. blank)X 100 [formula]

[1] = system: human brain P-2 derived aprotinin binding pool Y protease (chymotryptic-like serine protease); experiment: Immunoblot assay of APP degradation by the pool Y serine protease; format: biochemical; conditions: pool Y 14 ug/ml, APP 35 nM
Procedure: Reactions were initiated at 37°C by enzyme addition to achieve the following initial component concentrations in a 16 ul volume: pool Y # 3-5 (14 ug/ml) after purification on a superdex 75 column, APP (35 nM), in 30 mM Mes buffer pH 6.5. Reactions were terminated by addition of 7.5 ul of 3X sample buffer. Immunoblots were developed using the rabbit antiserum to the APP C-terminal domain according to example 8. […] The following controls were also run: no inhibitor (lane 12), ethanol (lane 3), methanol (lane 5), pool Y only (lane 2), APP only at time zero (lane 13) and 4 hr (lane 14). Lanes 1 and 7 respectively show prestained Mr markers and the C-100 standard. Panel (b) 1.8 uM alpha-1-antichymotrypsin (lane 2), 156 uM TLCK (lane 3), 46 uM chymotrypsin inhibitor I (lane 4), 119 uM chymotrypsin inhibitor II (lane 5), 4 uM alpha-2-antiplasmin (lane 6), 51 uM alpha-1-antitrypsin (lane 7), 98 uM chymostatin administered in DMSO (lane 10), 153 uM methanolic TPCK (lane 12). Controls included: no inhibitor (lane 8), DMSO (lane 11), and methanol (lane 13). Pre-stained molecular weight markers and C-100 standards were applied to lanes 1 and 9 respectively. Incubation times of 4 and 2 hr were used in panels a) and b) respectively.
• i) Sub-cellular fractionation. This was performed essentially as described in Method 1, above. • ii) Solubilization. This was performed essentially as described in Method 1, above. • iii) Aprotinin-sepharose chromatography. Soluble (230 mg), P-2 (216 mg) or microsomal fraction (47 mg) described above was applied to a column of aprotinin sepharose (Sigma, catalog # 42268, 1.5 X 10 cm), previously equilibrated with 20 mM Tris HCl buffer pH 7.0. Once loaded the column was washed with equilibration buffer (100 ml), and then eluted with 60 ml of 50 mM sodium acetate buffer pH 5.0 containing 500 mM sodium chloride. The flow rate was 1.0 ml/min throughout. Eluted fractions (4 ml) were monitored at 280 nm, analysed using the Bradford protein assay, and examined for APP C-terminal processing activity as described in Example 8, using recombinant APP derived by expression in a baculo virus system. […] Active fractions from the purification of the P-2 fraction on aprotinin-sepharose were pooled, dialyzed against 50 mM Tris-HCl pH 7.5 and applied to a mono-Q column (HR 5/5), previously equilibrated with dialysis buffer. Once loaded, the column was eluted essentially as described in Method 1. above. Active fractions (2 ml), were monitored for A 280 nm, total protein (Bradford assay), and for their capacity for baculo virus derived APP C-terminal processing. […] Pools X, Y, and Z were each concentrated to either 2 ml (pool X and Y) or 3.6 ml (pool z) and separately applied to a Superdex 75 column (Pharmacia, Piscataway NJ.) previously equilibrated with 50 mM Tris-HCl pH 7.5, containing 150 mM sodium chloride. Once loaded, the column was eluted with equilibration buffer. Chromatography was performed at a flow rate of 1.0 ml/min throughout. Fractions (1 ml) were monitored for A 280 nm, total protein (Bradford assay) and for C-terminal processing of baculo expressed APP. The gel filtration was calibrated by chromatography of each of the following standard proteins: Thyroglobulin (670 kDa), bovine gamma globulin (158 kDa), ovalbumin (44 kDa), myoglobin (17.5 kDa) and vitamin B 12 (1.35 kDa).

[2] = system: human AD brain fraction P2 VII APP degrading activity; experiment: Immunoblot assay of APP 695 degradation by Mono-Q pool P2 VII; format: biochemical; conditions: trial A, PMSF 0.8mM, pH 6.5, 24 hrs, 37°C
Procedure: ii) Solubilization. The membranous control or AD subfractions (P-2 or M) were solubilized by adjusting to the following conditions: 2% (v/v) Triton X-100 containing 50 mM Tris HCl buffer, pH 7.5. After stirring at 4°C for 3.5 hrs, the suspensions were centrifuged at 105,000 g x 60 min in a Beckman 70 Ti rotor. The following final protein concentrations were used in solubilization, for P-2 (3.9 to 4.0 mg/ml); and for M (1.4 to 1.6 mg/ml). Solubilized supernatants were stored at -70°C for later use. The soluble fraction was not treated with detergent but rather was adjusted to 50 mM in Tris HCl, pH 7.5, by the addition of stock 1M buffer. iii) Ion-exchange chromatography. Chromatography was performed using a Gilson gradient liquid chromatograph (model 305 and 306 pumps) equipped with a 50 ml Rheodyne stainless steel loop injector model 7125, and connected to a Mono Q HR 10/10 column (Pharmacia, Piscataway, NJ). Absorbance of column effluent was monitored at 280 nm using a Pharmacia UV-M detector and a Kippen-zonen chart recorder. […] In the initial studies, eluted fractions were monitored for A280 nm, total protein (Bradford assay), and peptidase activity (as decsribed in Examples 2 and 3). […] Fractions were monitored for A 280 nm, total protein (Bradford assay), peptidase activity, and activity for C-terminal processing of recombinant APP. […]

P-2 enzyme (peak B) = P-2 enzyme (peak B) further purified on Superose 6HR (17.5 ug/ml) in acetate, Mes and Tris pH 5.0; conditions: human, 37 C, up to 24hr
[3] = system: cathepsin D (human liver, Cal Biochem); experiment: Cathepsin D (2.8 ug/ml) in cocktail buffer 130 mM in each of acetate, Mes and Tris pH 5.0; conditions: 37 C, up to 24hr
P-2 peak B enzyme = P-2 peak B enzyme (7.5 ug/ml), sodium chloride (75 mM), 135 mM in each of tris, Mes and acetate buffer pH 5.0; conditions: human, 37 C
cathepsin D = experiment: Cathepsin D (2.5 ug/ml), sodium chloride (75 mM), 135 mM in each of tris, Mes and acetate buffer pH 5.0; conditions: human, 37 C
[4] = Mono-Q ion-exchange fractions of P-2, S and M subfractions of control and AD human cortex; conditions: 37°C, up to 24 hrs

## 597-624: Synthetic peptide containing amino acids 597-624 of human APP695; amino acids 1-28 of the beta-amyloid sequence (LTETKTTVELLPVNGEFSLDDLQPWHSF; isoform APP695; UniProt P05067 597-624, looked up, fragment)
C286.8A
  ability to block binding of C286.8A to APP 597-638: able to inhibit C286.8A binding in a dose-dependent fashion

## 597-638: Synthetic peptide containing amino acids 597-638 of human APP695; amino acids 1-42 of the beta-amyloid sequence
C286.8A
  ability to block binding of C286.8A to APP 597-638: able to inhibit C286.8A binding in a dose-dependent fashion

## CC(C)CC(NC(=O)C1OC1C(=O)O)C(=O)NCCCCN=C(N)N (stereo not shown) [E-64]
[1]; 350 uM E-64, Mes pH 6.5, 4 hr, Figure 18a
  Inhibitor sensitivity of the pool Y protease (APP degradation): unaffected

## O=S(=O)(F)Cc1ccccc1 [PMSF]
[1]; 860 uM PMSF in methanol, Mes pH 6.5, 4 hr, Figure 18a
  Inhibitor sensitivity of the pool Y protease (APP degradation): inhibited
[2]; 11.5 kDa fragment
  Inhibitors (pH 6.5): compounds causing complete inhibition are listed: PMSF
[2]; >11.5 kDa fragment
  Inhibitors (pH 6.5): compounds causing complete inhibition are listed: PMSF

## Cc1ccc(S(=O)(=O)N[C@@H](CCCCN)C(=O)CCl)cc1 [TLCK]
[1]; 156 uM TLCK, Mes pH 6.5, 2 hr, Figure 18b
  Inhibitor sensitivity of the pool Y protease (APP degradation): did not inhibit at all

## Cc1ccc(S(=O)(=O)N[C@@H](Cc2ccccc2)C(=O)CCl)cc1 [TPCK]
[1]; 153 uM methanolic TPCK, Mes pH 6.5, 2 hr, Figure 18b
  Inhibitor sensitivity of the pool Y protease (APP degradation): strongly inhibited

## N=C(N)c1ccccc1 [benzamidine]
[1]; 5 mM benzamidine, Mes pH 6.5, 4 hr, Figure 18a
  Inhibitor sensitivity of the pool Y protease (APP degradation): without effect

## CC(C)C[C@H](NC(=O)[C@@H](NC(=O)N[C@@H](Cc1ccccc1)C(=O)O)[C@@H]1CCN=C(N)N1)C(=O)N[C@H](C=O)Cc1ccccc1 [chymostatin]
[1]; 98 uM chymostatin administered in DMSO, Mes pH 6.5, 2 hr, Figure 18b
  Inhibitor sensitivity of the pool Y protease (APP degradation): Weak inhibition

## APP 597-612: Synthetic peptide containing amino acids 597-612 of human APP695; amino acids 1-16 of the beta-amyloid sequence (LTETKTTVELLPVNGE; isoform APP695; UniProt P05067 597-612, looked up, fragment)
C286.8A
  ability to block binding of C286.8A to APP 597-638: able to inhibit C286.8A binding in a dose-dependent fashion

## APP 608-624: Synthetic peptide, amino acids 608-624 of human APP695; beta-amyloid peptide sequence 12-28 (PVNGEFSLDDLQPWHSF; isoform APP695; UniProt P05067 608-624, looked up, fragment)
C286.8A
  ability to block binding of C286.8A to APP 597-638: did not inhibit binding

## APP 621-631: Synthetic peptide, amino acids 621-631 of human APP695; beta-amyloid peptide sequence 25-35 (WHSFGADSVPA; isoform APP695; UniProt P05067 621-631, looked up, fragment)
C286.8A
  ability to block binding of C286.8A to APP 597-638: did not inhibit binding

## APP 645-695: Synthetic peptide, amino acids 645-695 of human APP695, C-terminal domain, devoid of any beta-amyloid sequence (AADRGLTTRPGSGLTNIKTEEISEVKMDAEFRHDSGYEVHHQKLVFFAEDV; isoform APP695; UniProt P05067 645-695, looked up, fragment)
C286.8A
  ability to block binding of C286.8A to APP 597-638: did not inhibit binding

## N-Dansyl-Ile-Ser-Glu-Val-Lys-Met-Asp-Ala-Glu-Phe-Arg-NH2
P-2 enzyme (peak B)
  cleaved bond: Met-Asp, minor; also recorded: Glu-Val, major
[3]
  cleaved bond: Glu-Val, major; also recorded: Met-Asp, minor
P-2 peak B enzyme
  cleaved bond: E-V and M-D
Cathepsin D
  cleaved bond: E-V and M-D

## N-dansyl-Ile-Ser-Glu-Val-Lys-Met-Asp-Ala-Glu-Phe-Arg-His-Asp-Asp-Asp-Asp
[4]
  cleaved bond: V-K, major and K-M and M-D and S-E and E-V
